Literature values in article PMC9409351, “Differential Ganglioside and Cholesterol Depletion by Various Cyclodextrin Derivatives and Their Effect on Synaptosomal Glutamate Release” (International Journal of Molecular Sciences, 2022).

Legend:
cerebellar granule cells = system: cerebellar granule cells; set-up: method as in PMID 12897192; details: in addition to cholesterol extraction; cited from earlier work
[1] = system: cell model of GM1 gangliosidosis; set-up: method as in doi:10.1007/s10847-018-0835-8; details: immunofluorescence staining; cited from earlier work

Row | Molecule | Sphingomyelin and GSL levels after treatment (cerebellar granule cells) | Lysosomal accumulation of GM1 [1]
1 | methylated beta-cyclodextrins [MBCD] | reduction in the sphingomyelin and GSL levels | –
2 | COCC1OC2OC3C(COC)OC(OC4C(COC)OC(OC5C(COC)OC(OC6C(COC)OC(OC7C(COC)OC(OC1C(O)C2OC)C(OC)C7O)C(OC)C6O)C(OC)C5O)C(OC)C4O)C(OC)C3O (stereo not drawn) [DIMEA, hexakis(2,6-di-O-methyl)-alpha-cyclodextrin] | – | reduced lysosomal accumulation of GM1
